# Data published in US20150125509A1, “TREATMENT OF FISH POPULATIONS WITH LUFENURON” (priority 2012, published 2015).
# Key:
# sea louse = details: injectable, WO99/063824; cited from earlier work
# L. salmonis = assay: Example 1: in-feed treatment in sea water, natural sea louse infestation, L. salmonis counts; assay type: in vivo, Lepeophtheirus salmonis on Atlantic Salmon, S. salar; details: for L. salmonis: all stages, Treated, average group counts / L. salmonis: pre- & adults, Efficacy / L. salmonis: pre- & adults, Treated, average group counts: sea water
# Description: Three groups of 150 salmon (Atlantic Salmon, S. salar) of average weight 238 g were treated with medicated pellets containing lufenuron at a dose of respectively 3, 5 and 10 mg/kg/day during 7 consecutive days. The medicated pellets were prepared by dry coating commercially available fish feed pellets with a lufenuron-containing pre-mix to reach a content of 0.03, 0.05 and 0.1% (w/w) lufenuron in the fish feed and administered at a 1% feeding rate. The treatment was carried out in sea water.
# Each group was maintained in a separate cage. A fourth cage containing 150 salmon of average weight 238 g was added to the study as a non-treated control group.
# After treatment, the fish were exposed to natural sea louse infestation for a period of 9 months. During the study the water temperature varied between 4 and 12° C. Fish weight and sea louse numbers were assessed 1 day post-treatment, 1 week post-treatment and afterwards on a monthly basis until month 9. Counts were conducted on 10 fish at each sampling occasion. The numbers of chalimus, pre-adults and adult male, mobile and mature female L. salmonis were recorded for each fish. No distinction was made between chalimus stages I-IV or between pre-adult and adult male stages.
# Efficacy was calculated using the formula:
# % Efficacy=100−(100×mean of treatment group/mean of control).
# [1] = 3 mg/kg/day 7 days in-feed, 1 month post-treatment
# [2] = 3 mg/kg/day 7 days in-feed, 1 week post-treatment
# [3] = 3 mg/kg/day 7 days in-feed, 2 month post-treatment
# [4] = 3 mg/kg/day 7 days in-feed, 3 month post-treatment
# [5] = 3 mg/kg/day 7 days in-feed, 4 month post-treatment
# [6] = 3 mg/kg/day 7 days in-feed, 5 month post-treatment
# [7] = 3 mg/kg/day 7 days in-feed, 6 month post-treatment
# [8] = 3 mg/kg/day 7 days in-feed, 1 day post-treatment
# [9] = 5 mg/kg/day 7 days in-feed, 1 month post-treatment
# [10] = 5 mg/kg/day 7 days in-feed, 1 week post-treatment
# [11] = 5 mg/kg/day 7 days in-feed, 2 month post-treatment
# [12] = 5 mg/kg/day 7 days in-feed, 3 month post-treatment
# [13] = 5 mg/kg/day 7 days in-feed, 4 month post-treatment
# [14] = 5 mg/kg/day 7 days in-feed, 5 month post-treatment
# [15] = 5 mg/kg/day 7 days in-feed, 6 month post-treatment
# [16] = 5 mg/kg/day 7 days in-feed, 7 month post-treatment
# [17] = 5 mg/kg/day 7 days in-feed, 8 month post-treatment
# [18] = 5 mg/kg/day 7 days in-feed, 9 month post-treatment
# [19] = 5 mg/kg/day 7 days in-feed, 1 day post-treatment
# [20] = 10 mg/kg/day 7 days in-feed, 1 month post-treatment
# [21] = 10 mg/kg/day 7 days in-feed, 1 week post-treatment
# [22] = 10 mg/kg/day 7 days in-feed, 2 month post-treatment
# [23] = 10 mg/kg/day 7 days in-feed, 3 month post-treatment
# [24] = 10 mg/kg/day 7 days in-feed, 4 month post-treatment
# [25] = 10 mg/kg/day 7 days in-feed, 5 month post-treatment
# [26] = 10 mg/kg/day 7 days in-feed, 6 month post-treatment
# [27] = 10 mg/kg/day 7 days in-feed, 7 month post-treatment
# [28] = 10 mg/kg/day 7 days in-feed, 8 month post-treatment
# [29] = 10 mg/kg/day 7 days in-feed, 9 month post-treatment
# [30] = 10 mg/kg/day 7 days in-feed, 1 day post-treatment
smiles,measurement,setting,value
"O=C(NC(=O)c1c(F)cccc1F)Nc1cc(Cl)c(OC(F)(F)C(F)C(F)(F)F)cc1Cl (centres unmarked) [lufenuron, N-{[2,5-Dichlor-4-(1,1,2,3,3,3-hexafluorpropoxy)phenyl]carbamoyl}-2,6-difluorbenzamid]",protection against sea louse infestation after injection,sea louse,128 days
same,"L. salmonis: all stages, Treated, average group counts",L. salmonis; [1],0.00
same,"L. salmonis: pre- & adults, Efficacy",L. salmonis; [1],100%
same,"L. salmonis: pre- & adults, Treated, average group counts",L. salmonis; [1],0.00
same,"L. salmonis: all stages, Treated, average group counts",L. salmonis; [2],0.10
same,"L. salmonis: pre- & adults, Treated, average group counts",L. salmonis; [2],0.10
same,"L. salmonis: all stages, Treated, average group counts",L. salmonis; [3],0.30
same,"L. salmonis: pre- & adults, Efficacy",L. salmonis; [3],95%
same,"L. salmonis: pre- & adults, Treated, average group counts",L. salmonis; [3],0.10
same,"L. salmonis: all stages, Treated, average group counts",L. salmonis; [4],0.20
same,"L. salmonis: pre- & adults, Efficacy",L. salmonis; [4],95%
same,"L. salmonis: pre- & adults, Treated, average group counts",L. salmonis; [4],0.10
same,"L. salmonis: all stages, Treated, average group counts",L. salmonis; [5],0.00
same,"L. salmonis: pre- & adults, Efficacy",L. salmonis; [5],100%
same,"L. salmonis: pre- & adults, Treated, average group counts",L. salmonis; [5],0.00
same,"L. salmonis: all stages, Treated, average group counts",L. salmonis; [6],0.10
same,"L. salmonis: pre- & adults, Efficacy",L. salmonis; [6],97%
same,"L. salmonis: pre- & adults, Treated, average group counts",L. salmonis; [6],0.10
same,"L. salmonis: all stages, Treated, average group counts",L. salmonis; [7],1.30
same,"L. salmonis: pre- & adults, Efficacy",L. salmonis; [7],50%
same,"L. salmonis: pre- & adults, Treated, average group counts",L. salmonis; [7],1.30
same,"L. salmonis: all stages, Treated, average group counts",L. salmonis; [8],0.10
same,"L. salmonis: pre- & adults, Treated, average group counts",L. salmonis; [8],0.10
same,"L. salmonis: all stages, Treated, average group counts",L. salmonis; [9],1.90
same,"L. salmonis: pre- & adults, Efficacy",L. salmonis; [9],90%
same,"L. salmonis: pre- & adults, Treated, average group counts",L. salmonis; [9],0.10
same,"L. salmonis: all stages, Treated, average group counts",L. salmonis; [10],0.00
same,"L. salmonis: pre- & adults, Treated, average group counts",L. salmonis; [10],0.00
same,"L. salmonis: all stages, Treated, average group counts",L. salmonis; [11],0.00
same,"L. salmonis: pre- & adults, Efficacy",L. salmonis; [11],100%
same,"L. salmonis: pre- & adults, Treated, average group counts",L. salmonis; [11],0.00
same,"L. salmonis: all stages, Treated, average group counts",L. salmonis; [12],0.20
same,"L. salmonis: pre- & adults, Efficacy",L. salmonis; [12],91%
same,"L. salmonis: pre- & adults, Treated, average group counts",L. salmonis; [12],0.20
same,"L. salmonis: all stages, Treated, average group counts",L. salmonis; [13],0.10
same,"L. salmonis: pre- & adults, Efficacy",L. salmonis; [13],96%
same,"L. salmonis: pre- & adults, Treated, average group counts",L. salmonis; [13],0.10
same,"L. salmonis: all stages, Treated, average group counts",L. salmonis; [14],0.10
same,"L. salmonis: pre- & adults, Efficacy",L. salmonis; [14],97%
same,"L. salmonis: pre- & adults, Treated, average group counts",L. salmonis; [14],0.10
same,"L. salmonis: all stages, Treated, average group counts",L. salmonis; [15],0.60
same,"L. salmonis: pre- & adults, Efficacy",L. salmonis; [15],77%
same,"L. salmonis: pre- & adults, Treated, average group counts",L. salmonis; [15],0.60
same,"L. salmonis: all stages, Treated, average group counts",L. salmonis; [16],1.80
same,"L. salmonis: pre- & adults, Efficacy",L. salmonis; [16],88%
same,"L. salmonis: pre- & adults, Treated, average group counts",L. salmonis; [16],0.60
same,"L. salmonis: all stages, Treated, average group counts",L. salmonis; [17],0.50
same,"L. salmonis: pre- & adults, Efficacy",L. salmonis; [17],90%
same,"L. salmonis: pre- & adults, Treated, average group counts",L. salmonis; [17],0.50
same,"L. salmonis: all stages, Treated, average group counts",L. salmonis; [18],0.40
same,"L. salmonis: pre- & adults, Efficacy",L. salmonis; [18],94%
same,"L. salmonis: pre- & adults, Treated, average group counts",L. salmonis; [18],0.40
same,"L. salmonis: all stages, Treated, average group counts",L. salmonis; [19],0.00
same,"L. salmonis: pre- & adults, Treated, average group counts",L. salmonis; [19],0.00
same,"L. salmonis: all stages, Treated, average group counts",L. salmonis; [20],3.10
same,"L. salmonis: pre- & adults, Efficacy",L. salmonis; [20],100%
same,"L. salmonis: pre- & adults, Treated, average group counts",L. salmonis; [20],0.00
same,"L. salmonis: all stages, Treated, average group counts",L. salmonis; [21],0.20
same,"L. salmonis: pre- & adults, Treated, average group counts",L. salmonis; [21],0.00
same,"L. salmonis: all stages, Treated, average group counts",L. salmonis; [22],0.00
same,"L. salmonis: pre- & adults, Efficacy",L. salmonis; [22],100%
same,"L. salmonis: pre- & adults, Treated, average group counts",L. salmonis; [22],0.00
same,"L. salmonis: all stages, Treated, average group counts",L. salmonis; [23],0.10
same,"L. salmonis: pre- & adults, Efficacy",L. salmonis; [23],95%
same,"L. salmonis: pre- & adults, Treated, average group counts",L. salmonis; [23],0.10
same,"L. salmonis: all stages, Treated, average group counts",L. salmonis; [24],0.00
same,"L. salmonis: pre- & adults, Efficacy",L. salmonis; [24],100%
same,"L. salmonis: pre- & adults, Treated, average group counts",L. salmonis; [24],0.00
same,"L. salmonis: all stages, Treated, average group counts",L. salmonis; [25],0.00
same,"L. salmonis: pre- & adults, Efficacy",L. salmonis; [25],100%
same,"L. salmonis: pre- & adults, Treated, average group counts",L. salmonis; [25],0.00
same,"L. salmonis: all stages, Treated, average group counts",L. salmonis; [26],0.30
same,"L. salmonis: pre- & adults, Efficacy",L. salmonis; [26],96%
same,"L. salmonis: pre- & adults, Treated, average group counts",L. salmonis; [26],0.10
same,"L. salmonis: all stages, Treated, average group counts",L. salmonis; [27],0.80
same,"L. salmonis: pre- & adults, Efficacy",L. salmonis; [27],98%
same,"L. salmonis: pre- & adults, Treated, average group counts",L. salmonis; [27],0.10
same,"L. salmonis: all stages, Treated, average group counts",L. salmonis; [28],0.10
same,"L. salmonis: pre- & adults, Efficacy",L. salmonis; [28],98%
same,"L. salmonis: pre- & adults, Treated, average group counts",L. salmonis; [28],0.10
same,"L. salmonis: all stages, Treated, average group counts",L. salmonis; [29],0.00
same,"L. salmonis: pre- & adults, Efficacy",L. salmonis; [29],100%
same,"L. salmonis: pre- & adults, Treated, average group counts",L. salmonis; [29],0.00
same,"L. salmonis: all stages, Treated, average group counts",L. salmonis; [30],0.00
same,"L. salmonis: pre- & adults, Treated, average group counts",L. salmonis; [30],0.00
same,protected the fish against sea louse infestation until (time post-treatment),"L. salmonis; Example 1, 3 mg/kg treatment",5 months
same,protected the fish against sea louse infestation until (time post treatment),"L. salmonis; Example 1, 5 mg/kg treatment",9 months
same,efficacy against sea lice at all time points,"L. salmonis; Example 1, 10 mg/kg group",more than 95%
same,protected the fish against sea louse infestation up to the end of the study (time post treatment),"L. salmonis; Example 1, 10 mg/kg treatment",9 months
